In patent US5830863A, “Neurokinin A antagonists” (priority 1996, dated 1998):
Residues, ends and D or L forms follow the SMILES beside them.

Legend:
[1] = biological target: T1, neurokinin A (NKA) receptor (NK-2) (Mesocricetus auratus, UniProt P51144); test: displacement of I125 labeled NKA from hamster urinary bladder membranes; assay type: binding
T1 construct: displace I125 labeled NKA from hamster urinary bladder; from tissue; host or cells: hamster urinary bladder (membranes in A1, chopped tissue in A4)
T1 sequence (P51144 1-384): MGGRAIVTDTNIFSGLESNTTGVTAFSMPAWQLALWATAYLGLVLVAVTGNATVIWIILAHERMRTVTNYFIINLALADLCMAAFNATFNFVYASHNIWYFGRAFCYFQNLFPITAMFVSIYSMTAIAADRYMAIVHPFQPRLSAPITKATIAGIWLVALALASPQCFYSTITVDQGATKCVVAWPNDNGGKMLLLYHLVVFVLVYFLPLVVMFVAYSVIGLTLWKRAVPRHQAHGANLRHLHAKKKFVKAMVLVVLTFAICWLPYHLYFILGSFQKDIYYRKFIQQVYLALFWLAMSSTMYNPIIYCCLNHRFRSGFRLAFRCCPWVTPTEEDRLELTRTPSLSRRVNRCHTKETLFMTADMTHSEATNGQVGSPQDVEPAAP
Text: The abscissa (x-axis) logarithmically indicates the concentration in nanomoles of agonist of antagonist of the neurokinin A (NKA) receptor. The ordinate (Y-axis) indicates the observed specific binding for each tested agonist or antagonist measured as a percentage of maximum specific binding.
Agonists tested were NKA and fragments of NKA consisting of the third to tenth (NKA(3-10)) amino acids and the fourth to tenth (NKA(4-10)) amino acids. Values are MEAN±S.E.M. of 6-12 experiments. IC50 values estimated graphically from 50% inhibition point.
Urinary bladders from several hamsters were pooled, minced, and homogenized in 50 mM TRIS-HCl (pH 7.4) containing 120 mM NaCl and 5 mM KCl at 4° C. and centrifuged at 48,000×g for 15 minutes. The pellet was resuspended for 30 minutes in 50 mM TRIS-HCl (pH 7.4) containing 10 mM EDTA and 300 mM KCl at 4° C. The suspension was centrifuged as above and the pellet was washed two times in plain 50 mM TRIS-HCl (pH 7.4) and centrifuged similarly. The tissue was then resuspended in incubation buffer and an aliquot (approximately 3-5 mg tissue) was added to each assay tube to commence the assay. The assay tubes contained incubation buffer consisting of 50 mM TRIS-HCl (pH 7.4), 0.02% BSA, 40 μg/ml bacitracin, 4 μg/ml chymostatin, 4 μg/ml leupeptin, 2 mM MnCl2, 0.1 nM ^125 iodohistidyl^1 -neurokinin A (Amersham Corp.), and concentrations of the title compounds or standards ranging from 0.03 nM to 100 μM. The assay was allowed to proceed to equilibrium for 120 min at room temperature. After this time, the contents of each tube was rapidly filtered over Whatman GF/B filters presoaked in 0.5% BSA and the filters were rapidly washed two times with ice-cold plain 50 mM TRIS-HCl (pH 7.4). Filter-bound radioactivity was quantitated in a gamma counter. Specific binding (maximum) was defined as the difference between binding in the presence and absence of 1 μM unlabeled neurokinin A. Competition of iodinated neurokinin A binding by test compounds or standards was expressed as a percentage of this maximum competition.
Values given indicate the concentration in nanomoles of antagonist to reach the IC50 of the neurokinin A (NKA) receptor. SKLKB82#3 represents a cloned NK-2 receptor cell line; the sample is prepared from the scraped cell pellet for assay as earlier described for the hamster urinary bladder preparations. NK-1 represents a substance P receptor preparation from rat salivary gland; receptors are prepared as earlier described for the hamster urinary bladder preparations. Blank spaces indicate compound has not been tested in that particular assay.

[2] = biological target: T2, NKA receptor (Mesocricetus auratus, UniProt P51144); test: phosphatidylinositol (PI) turnover in hamster urinary bladder; assay type: cell-based; conditions: test compound alone; ID#3 up to 100 μM
T2 construct: displace I125 labeled NKA from hamster urinary bladder; from tissue; host or cells: hamster urinary bladder (membranes in A1, chopped tissue in A4)
T2 sequence (P51144 1-384): T1 sequence (P51144 1-384)
Experimental: The abscissa (x-axis) logarithmically indicates the concentration in nanomolar (nM) of agonist or antagonist of the NKA receptor. The ordinate (y-axis) indicates the observed PI turnover as a percentage of control. […] The ordinate (y-axis) indicates the observed PI turnover as a percentage of control. […] Urinary bladders from several hamsters were pooled and chopped at 350 μm with a tissue chopper. The chopped tissue was then incubated in 37° C. Krebs-Hepes buffer with fresh buffer changes every 15 minutes for 30 minutes. The tissue was then incubated in this buffer containing 100-200 μCi of ^3 H-inositol at 37° C. […] Test compound was also evaluated alone at the indicated concentrations to test for agonist activity. […] 50 μl of the bottom phase (chloroform) was withdrawn from each tube and placed in a counting vial, dried, and counted in scintillation fluid. The material on the columns was washed in order with: 1) 10 ml of water 2) 5 ml of 5 mM disodium tetraborate/60 mM sodium formate 3) 10 ml of 1M ammonium formate in 0.1M formic acid The final (third) wash was collected and one ml was mixed with 6 ml of ACS scintillant and counted. The ratio of these counts (total inositol phosphates) to the corresponding organic phase counts was then calculated for each sample. […]

IC50 [1]	partial agonist activity (PI turnover) [2]	Structure (SMILES)
0.157 ± 0.017 µM	12%	CC(C)C[C@@H](CN[C@@H](CC(C)C)C(N)=O)NC(=O)CNC(=O)[C@@H](NC(=O)[C@H](Cc1ccccc1)NC(=O)[C@H](CO)NC(=O)[C@@H](N)CC(=O)O)C(C)C [MDL 28,564, H-Asp-Ser-Phe-Val-Gly-Leu.PSI.(CH2 NH)Leu-NH2] (HELM PEPTIDE1{D.S.F.V.G.[CC(C)C[C@@H](CN[C@@H](CC(C)C)C(N)=O)N[*:1]]}$$$$V2.0)
0.21 ± 0.015 µM	5%	CC(C)C[C@@H](CN(C)[C@@H](CC(C)C)C(N)=O)NC(=O)CNC(=O)[C@@H](NC(=O)[C@H](Cc1ccccc1)NC(=O)[C@H](CO)NC(=O)[C@@H](N)CC(=O)O)C(C)C [MDL 29,916, H-Asp-Ser-Phe-Val-Gly-Leu.PSI.(CH2 NCH3)Leu-NH2] (HELM PEPTIDE1{D.S.F.V.G.[CC(C)C[C@@H](CN(C)[C@@H](CC(C)C)C(N)=O)N[*:1]]}$$$$V2.0)
